Data on five compounds can be found in patent US20100048604A1, “Ligands for Aldoketoreductases” (priority 2004, published 2010).

The structures appear in SMILES notation. A value given as a limit tells only on which side of the number the result lay.

In one data set the target is T1, AKR1C3 (Homo sapiens, UniProt P42330).
T1 construct: gift of Professor Trevor Penning (University of Pennsylvania School of Medicine)
T1 sequence (P42330 1-323): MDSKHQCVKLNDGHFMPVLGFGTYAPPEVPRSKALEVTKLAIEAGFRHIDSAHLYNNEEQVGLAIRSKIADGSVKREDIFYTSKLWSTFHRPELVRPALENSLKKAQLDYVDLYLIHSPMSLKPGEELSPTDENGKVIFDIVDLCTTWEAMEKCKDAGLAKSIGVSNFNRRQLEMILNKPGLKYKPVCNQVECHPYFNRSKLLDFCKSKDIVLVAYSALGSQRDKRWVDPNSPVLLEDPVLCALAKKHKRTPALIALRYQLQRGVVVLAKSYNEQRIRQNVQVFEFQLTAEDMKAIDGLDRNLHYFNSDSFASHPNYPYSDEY
As to the kind of experiment: Steady state kinetic parameters of fluorogenic substrates with purified AKR1C isozymes. The class given is biochemical. On the procedure: The initial reaction rates were used to derive standard kinetic parameters (kcat and Km, Materials and Methods).
Substrate tolerance of AKR1Cs: Isozyme Activity with 5a-5i: Activity of the second generation of fluorogenic substrates with the AKR1C isozymes was determined as follows. […] After mixing the aqueous components thoroughly, 20 μL of acetonitrile was added as a cosolvent and mixed well. […] 4 μL of undiluted AKR1C (provided generously by the Penning lab at concentrations of 2.5 mg/mL) were then added to the cuvette for a total of 10 μg purified enzyme in the 1 mL assay volume. Fluorescence arising from the respective alcohol reduction product was then monitored over the course of 5-10 minutes.
Binding constant and catalytic rates (Km and kcat) of the second generation of fluorogenic substrates was determined as follows. […] After mixing the aqueous components thoroughly, 20 μL of acetonitrile was added as a cosolvent and mixed well. […] To initiate the reduction, 2 or 4 μL of diluted AKR1C (1:2 to 1:100, depending on the kinetics of a particular isozyme's reduction of a substrate) was then added to the cuvette. Fluorescence arising from the respective alcohol reduction product was then monitored over the course of 3 minutes (Excitation and emission band pass slits both at 4 nm, lamp 700 V, λexc 410 nm, λem 510).
initial rate=[nst×(Ft−F0)/(Fst)]/t (1)
where Ft and F0 represent the fluorescence at times t and 0 minutes, nst is the nanomoles of product in a known concentration of product, and Fst is the fluorescence resulting from nst of product. […] Reported enzymatic kinetic parameters are the average of three independent determinations from three different preparations of substrate and enzyme.

The test system of a further data set is HepG2 cell fractions. As to the kind of experiment: Metabolism of phenyl ketone 5c in HepG2 cell fractions. The conditions noted are these: 10 μM 5c. Format: in vitro ADME, human. On the procedure: FIG. 17. Reactivity of HepG2 cell fractions with 5c. Assays were performed in 50 mM Tris-HCl buffer containing 1 mM NADPH, 10 μM 5c and 80 μg protein/mL, incubated for 60 minutes. Legend: (+) without flufenamic acid; (−) with 100 μM flufenamic acid; HepG2=hepatoma cell line.
Selectivity of Phenyl Ketone Probe 5c in Cellular Lysates: The selectivity of phenyl ketone probe 5c in human hepatoma cells (HepG2), which are known to express all four AKR1C isozymes in the cytoplasm, was tested. […] An issue may be non-selective reduction of probes with microsomes, which are organelles enriched with redox enzymes. Following one hour incubation of probe 5c with both cytosolic and microsomal fractions prepared from HepG2 cells, the resulting mixtures were analyzed fluorimetrically. […] Moreover, reduction by the cytoplasmic extract was suppressed by flufenamic acid, a known inhibitor of the AKR1C isozymes (Penning, T. M.; Talalay, P. Proc Natl Acad Sci USA 1983, 4504-4508).
HepG2 cells were obtained from and grown in the Penning laboratory (University of Pennsylvania School of Medicine). Cells were maintained at 37° C. and 5% CO2 containing Eagle's minimal essential medium supplemented with 100 U/mL penicillin, 100 μg/mL streptomycin, 2 mM L-glutamine, and 10 % heat-inactivated fetal bovine serum.
To measure metabolism of 5c in HepG2 cell fractions, the cells were harvested and fractionized as follows. HepG2 cells were grown to confluency on eight 15×100 mm dishes, whereupon 500 μL of ice cold Tris-HCl-sucrose buffer (50 mM Tris-HCl at pH 7.4, 250 mM sucrose, 1 mM EDTA, and 1 mM 2-mercaptoethanol) was added to each dish. Cells were scratched off and taken up directly into an ice cold potter. These cells were then homogenized and sonicated (10 one-second 10 W bursts, four times on ice). […]
Protein concentrations for whole or fractionized HepG2 cells were determined by standard Bradford assays (Bradford, M. M.; Anal. Biochem. 1976, 72, 248). […] Reactions were initiated with 80 μg of protein per 1 mL assay and monitored fluorimetrically for up to 2 hours. […]

Data set [1] has as its target T2, Pseudomonas testosteroni 3α-hydroxysteroid dehydrogenase (Comamonas testosteroni, UniProt P80702).
T2 construct: purchased Sigma (St. Louis, Mo.) Lot Number 053K8624 (catalogue number not given)
As to the kind of experiment: Enzymatic screening of probes 1-7 against a panel of oxidoreductases. The class given is biochemical. Conditions: 12 hour incubation, 30-50 μM substrate, pH 7, 250 μM NAD(P)H. On the procedure: (§1) FIG. 4. Screening of probes 1-7 against a panel of oxidoreductases Percentage fluorescence increase after 12 hour incubation of 30-50 μM substrate, 100 mM phosphate buffer (pH 7), 250 μM NAD(P)H, and 100 nM enzyme. Substrates 1, 2, 3, and 4 monitored at λexc=340 nm, λem=440 nm. Substrates 5, 6, and 7 monitored at λexc=440 nm, λem=510 nm. 3HSD, 3α-hydroxysteroid dehydrogenase (PT, Pseudomonas testosteroni), HLAD, horse liver alcohol dehydrogenase, TBAD, Thermoanaerobium brockii alcohol dehydrogenase, BS 12HSD, Bacillus sp. 12α-hydroxysteroid dehydrogenase, ABAD, amyloid-β binding alcohol dehydrogenase (human), GDH, glycerol dehydrogenase, YADH, yeast alcohol dehydrogenase, LDH, lactate dehydrogenase.
(§2) Probes 1-7 (see FIG. 3) were subsequently tested against a collection of dehydrogenases in the presence of NAD(P)H; the extent of reduction was assessed by the measurement of fluorescence intensity at the emission maximum of each probe (FIG. 4). This assay included enzymes from two major oxidoreductase superfamilies, the short chain alcohol dehydrogenases (SDR) and the aldo-keto reductases (AKR), ranging from bacterial to mammalian and human enzymes.
(§3) Horse Liver alcohol dehydrogenase (Lot Number 51K7520), Thermoanaerobium brockii NADP^+ dependent alcohol dehydrogenase (Lot Number 033K4093), Pseudomonas testosteroni 3α-hydroxysteroid dehydrogenase (Lot Number 053K8624), and Bacillus sphaericus 12α-hydroxysteroid dehydrogenase (Lot Number 70K16621) were purchased from Sigma (St. Louis, Mo.). Yeast alcohol dehydrogenase (Lot Number 93122920), glycerol dehydrogenase (Lot Number 92110122), (D)-lactate dehydrogenase (Lot Number 92419236), (L)-lactate dehydrogenase (Lot Number 92801821), NAD^+, NADP^+, NADH, and NADPH were purchased from Roche. Enzyme activity was confirmed by compliance to supplier's quality control assays prior to usage. Rat and human 3α-hydroxysteroid dehydrogenases were provided by Professor Trevor Penning (University of Pennsylvania School of Medicine) and human amyloid-β peptide binding alcohol dehydrogenase was supplied by Professor Shi Du Yan (Columbia University School for Physicians and Surgeons).
(§4) Enzymatic assays were performed in triplicate on selected fluorogenic substrates according to the following protocol. To each well of a FALCON 96-well black flat bottom plate was added (1) 40 μL of 500 mM potassium phosphate buffer pH 7.0, (2) 113 μL of double deionized water, (3) 25 μL of 2 mM NADH (except for Pseudomonas testosteroni 3α-hydroxysteroid dehydrogenase, rat 3α-hydroxysteroid dehydrogenase, and Thermoanaerobium brockii NADP^+ dependent alcohol dehydrogenase, in which cases 2 mM of NADPH was used), (4) 2 μL of a 3-5 mM solution of substrate in DMSO, and (5) 20 μL of a 40-50 μg/mL solution of enzyme. Reaction volumes were mixed thoroughly after addition of cofactor, substrate, and enzyme and allowed to react 12 hours at 25° C. Scanning of the 96-well plate was performed by the MicroMax 384 connected to a Jobin Yvon Fluorolog through F-3000 fiber optic cables.
(§5) Initial Screening with Fluorogenic Substrates: Screening of the first fluorogenic substrates for enzymatic activity has been described above. In short, 200 μL enzymatic assay volumes containing 100 mM potassium phosphate buffer (pH 7), 250 μM NAD(P)H cofactor, and 30-50 μM of ketones (1-7) were incubated for 12 hours on a black FALCON 96-well plate. Formation of the alcohol reduction product was determined by reading the fluorescence arising from excitation at the corresponding alcohol at either 340 nm (27-30) or 440 nm (31-33).

The target in data set [2] is T3, rat 3α-hydroxysteroid dehydrogenase (Rattus norvegicus, UniProt P23457).
T3 construct: gift of Professor Trevor Penning (University of Pennsylvania School of Medicine)
T3 sequence (P23457 1-322): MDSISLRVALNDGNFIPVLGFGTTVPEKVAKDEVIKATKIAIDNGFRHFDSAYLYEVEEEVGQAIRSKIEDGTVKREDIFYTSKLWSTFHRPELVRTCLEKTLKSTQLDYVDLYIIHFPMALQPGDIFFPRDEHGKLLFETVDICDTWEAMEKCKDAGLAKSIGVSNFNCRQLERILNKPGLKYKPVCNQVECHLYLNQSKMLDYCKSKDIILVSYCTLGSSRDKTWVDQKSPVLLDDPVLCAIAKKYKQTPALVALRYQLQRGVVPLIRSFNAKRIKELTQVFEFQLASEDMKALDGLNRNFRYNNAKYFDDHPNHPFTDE
Described as above. Format: biochemical. Conditions: 12 hour incubation, 30-50 μM substrate, pH 7, 250 μM NAD(P)H. On the procedure: as §1, §2, §3, §4, §5

Data set [3] is described as follows: Solubility in DMSO, methanol and acetonitrile. The class given is physicochemical. The conditions noted are these: methanol, acetonitrile, organic solvent or mixture, read-out: solubility class (asterisk) in DMSO, methanol, and acetonitrile.
[4] abbreviates: isozyme 1C3, potassium phosphate buffer pH 6, NADPH, fluorimetric.

T2 sequence (P80702 whole entry): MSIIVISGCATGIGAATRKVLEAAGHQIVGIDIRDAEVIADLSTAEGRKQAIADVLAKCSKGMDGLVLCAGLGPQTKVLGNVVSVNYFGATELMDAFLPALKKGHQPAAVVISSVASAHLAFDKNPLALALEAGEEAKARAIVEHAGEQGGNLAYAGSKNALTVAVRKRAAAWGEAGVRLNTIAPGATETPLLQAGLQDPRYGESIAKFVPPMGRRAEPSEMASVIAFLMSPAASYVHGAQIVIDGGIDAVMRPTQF

One may read the Km as the substrate concentration at which the rate is half of its maximum. On to `O=C(c1ccccc1)c1cc(=O)oc2c3c4c(cc12)CCCN4CCC3` [5c, 8-Benzoyl-2,3,5,6-tetrahydro-1H,4H-11-oxa-3a-aza-benzo[de]anthracen-10-one], for which the Km came to 0.051 µM at AKR1C3 (AKR1C3, value of the text) and 0.05 µM on AKR1C3 (setting [4]). For the same compound, the Kcat at AKR1C3 (setting [4]) was determined as 0.0988 s⁻¹. For the same compound, in the data set with HepG2 cell fractions (HepG2 cytosolic fraction, 1 mM NADPH, 80 μg protein/mL, one hour incubation), the “reduction in cytoplasmic (cytosolic) fraction” value was “enzymatic reduction occurred”. Also, the “stability / reduction in microsomal fraction” value in the data set on HepG2 cell fractions (HepG2 microsomes, 1 mM NADPH, 80 μg protein/mL, one hour incubation) is recorded as “stable in the presence of microsomes”.
Take `CC(=O)c1ccc(-c2cc3cc4c5c(c3oc2=O)CCCN5CCC4)cc1` [compound 6, 9-(4-Acetyl-phenyl)-2,3,5,6-tetrahydro-1H,4H-11-oxa-3a-aza-benzo[de]anthracen-10-one]: the “reduction of probe (fluorescence increase)” value in data set [1] and in data set [2] was “good conversion” throughout.
For `O=C(O)c1ccccc1Nc1cccc(C(F)(F)F)c1` [flufenamic acid, reference compound], the “effect on reduction of 5c by the cytoplasmic extract” value in the data set on HepG2 cell fractions (100 μM flufenamic acid, HepG2 cytoplasmic extract) is recorded as “suppressed”.
By solubility is commonly meant the dissolved amount per volume that the medium holds. Turning to `COc1ccc2cc(-c3ccc(C(C)=O)cc3)c(=O)oc2c1` [VB11], the solubility in data set [3] was above 1000 µM.
As for `CC(=O)c1ccc(-c2cc3cc4c5c(c3oc2=O)CCCN5CCC4)cc1` [VB35], the solubility in data set [3] is above 1000 µM.
